This is an account of results in patent US20060182728A1, “Methods for treating pervasive development disorders” (priority 1999, published 2006).

The test system of test [1] is children diagnosed with ADHD. Briefly: Required Ritalin level of ADHD children administered secretin. It is filed as in vivo, human. Particulars: each of 5 ADHD children with pathologic FC level; 6 months post-secretin vs pre-secretin. As to the method:
A preferred secretin infusion process includes the initial step of prepping an arm of the candidate child with an IV injection of saline. A test dose of 1 U of Secretin-Ferring is then administered to the child. Approximately one minute after infusion, the child is examined for signs of allergic reaction including rash, increased heart rate, and increase of blood pressure. […] Subsequently, each child receives a 1 U/kg of body weight infusion of Secretin-Ferring approximately every 6 weeks for 9 months. It is to be understood that any commercially available form of secretin may be used.
In this experiment, the fecal chymotrypsin levels of 34 children diagnosed with ADHD were obtained using the fecal chymotrypsin test described above in Experiment 1, the levels of which are illustrated in FIG. 16. As shown, 32 children out of 34 children tested were determined to have sub-normal fecal chymotrypsin levels.
To determine the effect of secretin administration on ADHD children, 5 of the 24 children having a pathologic fecal chymotrypsin level were administered secretin using the secretin infusion process described above.

For test [2], the system named is children diagnosed as having autism. Briefly: Fecal Chymotrypsin Test after secretin infusion in autistic children. It is filed as in vivo, human. As to the method:
In this experiment, 16 children diagnosed as having autism were administered the following Fecal Chymotrypsin Test in accordance with an embodiment of the invention. First, approximately 2 grams of stool were collected from each child and placed in a sterile container (although it is to be understood that any quantity of stool may be collected, as 2 grams of stool is not a required amount). Each stool sample was then analyzed using, e.g., an enzymatic photospectrometry analysis as is known by those skilled in the art, to determine the level of fecal chymotrypsin in the stool. Although the enzymatic photospectrophotometry process is preferred, any suitable conventional method may be used for measuring the fecal chymotrypsin levels. This measured chymotrypsin levels of the 16 autistic children are illustrated in FIG. 13.
After determining the chymotrypsin levels of the stools, each of these levels were compared with threshold chymotrypsin levels to determine if the child was likely to benefit from secretin administration. By way of example, with the fecal chymotrypsin tests of the stool samples being performed at 30EC, normal levels of chymotrypsin are deemed to lie above 8.4 U/gram, whereas pathologically abnormal levels are deemed to lie below 4.2 U/gram. In addition, chymotrypsin levels between 8.4 U/gram and 4.2 U/gram are considered equivocal, and further testing of the individual's fecal chymotrypsin levels over a period of time should be performed.
For each of the 16 autistic children tested, a preferred secretin infusion process according to the present invention was performed involving the administering of 1 U/kg of body weight of Secretin-Ferring for a period of nine months at intervals of approximately 6 weeks. […]
In this experiment, 37 autistic children with abnormal fecal chymotrypsin levels were administered secretin over the course of 6 months using the secretin infusion process described above. Their fecal chymotrypsin (FC) levels were measured weekly using the fecal chymotrypsin test described above.

Where [3] appears, read: 6 Months Post-Secretin Administration, of 37 children, 0 pre-secretin.

For the substance secretin, the “level of Ritalin (mg) needed to remain at the same functional level” value in test [1] is on record as “significant changes”. Besides, in test [2] (setting [3]), the “# Autistic Children w/Equivocal FC levels” value came to 2 and the “# Autistic Children w/normal FC levels” value is reported as 34. Moreover, the “fecal chymotrypsin level post-secretin administration compared with pre-secretin” value in test [2] (each of 16 autistic children, approximately one week after first secretin infusion, 1 U/kg IV) is “increased”.
